Measured values: paper PMC6133161, “Thiazoles with cyclopropyl fragment as antifungal, anticonvulsant, and anti-Toxoplasma gondii agents: synthesis, toxicity evaluation, and molecular docking study” (Medicinal Chemistry Research, 2018)
Values after ≈ are worked out from the molar mass of the structure shown.

Legend:
Test in all cases: Broth microdilution MIC/MFC, clinical isolate
Format in all cases: cell-based
C. dubliniensis = conditions: Candida dubliniensis, C. dubliniensis clinical strain; for MFC: read-out: MFC; for MIC: read-out: MIC
From the text: (§1) In the study of antifungal activity of the compounds 3a–3j, 15 clinical strains of different species of yeasts from Candida species, namely C. albicans, C. dubliniensis C. famata, C. inconspicua, C. krusei, C. tropicalis, C. glabrata, C. lambica, C. kefyr, C. lusitaniae, C. parapsilosis, C. guilliermondii, C. lusitaniae, C. pulcherrima and C. sake were also used. These fungi were isolated by the author (from Department of Pharmaceutical Microbiology of Medical University in Lublin, Poland) from different clinical materials, e.g., from upper respiratory tract of hospitalized patients including cancer patients (i.e., with non-small cell lung cancer or hematological malignancies). Some patients were after pre-operative or post-operative chemotherapy (treated with etoposide or cis-platin given in doses according to the standard procedures), patients with chronic hepatitis C (undergoing peginterferon and ribavirin therapy or without antiviral therapy), patients with diabetes, elderly people, aged of 65 years old or older, staying in close population, such as a care centre and people staying outside the home care. The Ethical Committee of the Medical University of Lublin approved the study protocol (No. KE-0254/75/2011). The isolates were identified by standard diagnostic methods—biochemical microtest, e.g., API 20C AUX, ID 32C, API Candida (bioMérieux) on the basis of assimilation of various substrates. All the used microbial cultures were first subcultured on nutrient agar or Sabouraud agar for bacteria and fungi, respectively. The RPMI 1640 with MOPS (for fungi) were inoculated with the suspensions of fungal species. Microbial suspensions were prepared in sterile saline (0.85% NaCl) with an optical density of 0.5 McFarland standard scale (Wiegand et al. [2008]). Samples containing examined compounds were dissolved in dimethyl sulfoxide (DMSO). Furthermore, fungal suspensions were put onto Petri dishes with solid media containing 2 mg/ml of the tested compounds followed incubation under appropriate conditions. The inhibition of microbial growth was judged by comparison with a control culture prepared without any sample tested. Nystatin (Sigma) was used as a reference antifungal compound. Subsequently MIC minimal inhibitory concentration (MIC) of the compounds was examined by the microdilution broth method, using their two-fold dilutions in RPMI 1640 broth with MOPS prepared in 96-well polystyrene plates. Final concentrations of the compounds ranged from 1000 to 0.0038 µg/ml. Microbial suspensions were prepared in sterile saline with an optical density of 0.5 McFarland standard. Next fungal suspension was added per each well containing broth and various concentrations of the examined compounds. After incubation, the MIC was assessed spectrophotometric as the lowest concentration of the samples showing complete fungal growth inhibition. Appropriate DMSO, growth and sterile controls were carried out. The medium with no tested substances was used as a control (Wiegand et al. [2008]). The minimal fungicidal concentration (MFC) are defined as the lowest concentration of the compounds that is required to kill a particular fungal species. MFC was determined by removing the culture using for MIC determinations from each well and spotting onto appropriate agar medium. The plates were incubated. The lowest compounds concentration with no visible growth observed was assessed as a fungicidal concentration. All the experiments were repeated three times and representative data are presented.
(§2) The MFC/MIC ratios were calculated in order to determine fungicidal (MFC/MIC ≤ 4) or fungistatic (MFC/MIC > 4) effect of the tested compounds (O’Donnell et al. [2010]).

C. famata = conditions: Debaryomyces hansenii, C. famata clinical strain; for MFC: read-out: MFC; for MIC: read-out: MIC
From the text: as §1, §2

C. glabrata = conditions: Nakaseomyces glabratus, C. glabrata clinical strain; for MFC: read-out: MFC; for MIC: read-out: MIC
From the text: as §1, §2

C. guilliermondii = conditions: Meyerozyma guilliermondii, C. guilliermondii clinical strain; for MFC: read-out: MFC; for MIC: read-out: MIC
From the text: as §1, §2

C. inconspicua = conditions: Pichia inconspicua, C. inconspicua clinical strain; for MFC: read-out: MFC; for MIC: read-out: MIC
From the text: as §1, §2

C. krusei = conditions: Pichia kudriavzevii, C. krusei clinical strain; for MFC: read-out: MFC; for MIC: read-out: MIC
From the text: as §1, §2

C. lambica = conditions: Pichia fermentans, C. lambica clinical strain; for MFC: read-out: MFC; for MIC: read-out: MIC
From the text: as §1, §2

C. tropicalis = conditions: Candida tropicalis, C. tropicalis clinical strain; for MFC: read-out: MFC; for MIC: read-out: MIC
From the text: as §1, §2

C. albicans = conditions: Candida albicans, C. albicans clinical strain; for MFC: read-out: MFC; for MIC: read-out: MIC
From the text: as §1, §2

C. pulcherrima = C. pulcherrima clinical strain; for MFC: read-out: MFC; for MIC: read-out: MIC
From the text: as §1, §2

C. parapsilosis = conditions: Lodderomyces parapsilosis, C. parapsilosis clinical strain; for MFC: read-out: MFC; for MIC: read-out: MIC
From the text: as §1, §2

C. sake = conditions: Fermentozyma sake, C. sake clinical strain; for MFC: read-out: MFC; for MIC: read-out: MIC
From the text: as §1, §2

C. lusitaniae = conditions: Clavispora lusitaniae, C. lusitaniae clinical strain; for MFC: read-out: MFC; for MIC: read-out: MIC
From the text: as §1, §2

C. kefyr = C. kefyr clinical strain; for MFC / MIC: Kluyveromyces marxianus; for MFC: read-out: MFC; for MIC: read-out: MIC
From the text: as §1, §2

| SMILES | MFC (C. dubliniensis) [mg/L] | MIC (C. dubliniensis) [mg/L] | MFC (C. famata) [mg/L] | MIC (C. famata) [mg/L] | MFC (C. glabrata) [mg/L] | MIC (C. glabrata) [mg/L] | MFC (C. guilliermondii) [mg/L] | MIC (C. guilliermondii) [mg/L] | MFC (C. inconspicua) [mg/L] | MIC (C. inconspicua) [mg/L] | MFC (C. krusei) [mg/L] | MIC (C. krusei) [mg/L] | MFC (C. lambica) [mg/L] | MIC (C. lambica) [mg/L] | MFC (C. tropicalis) [mg/L] | MIC (C. tropicalis) [mg/L] | MFC (C. albicans) [mg/L] | MIC (C. albicans) [mg/L] | MFC (C. pulcherrima) [mg/L] | MIC (C. pulcherrima) [mg/L] | other results |
| --- | --- | --- | --- | --- | --- | --- | --- | --- | --- | --- | --- | --- | --- | --- | --- | --- | --- | --- | --- | --- | --- |
| Clc1ccc(-c2csc(N/N=C/C3CC3)n2)cc1 [Compound 3c, (E)-4-(4-Chlorophenyl)-2-(2-(cyclopropylmethylene)hydrazinyl)thiazole] | 0.06 (≈ 0.216 µM) | 0.03 (≈ 0.108 µM) | 0.98 (≈ 3.53 µM) | 0.12 (≈ 0.432 µM) | > 1000 | 500 (≈ 1800 µM) | 0.98 (≈ 3.53 µM) | 0.24 (≈ 0.864 µM) | 3.91 (≈ 14.1 µM) | 0.98 (≈ 3.53 µM) | 0.48 (≈ 1.73 µM) | 0.12 (≈ 0.432 µM) | > 1000 | 125 (≈ 450 µM) | 0.12 (≈ 0.432 µM) | 0.12 (≈ 0.432 µM) | 0.98 (≈ 3.53 µM) | 0.06 (≈ 0.216 µM) | > 1000 | 125 (≈ 450 µM) | MFC (C. parapsilosis): 0.12 mg/L (≈ 0.432 µM); MIC (C. parapsilosis): 0.03 mg/L (≈ 0.108 µM); MFC (C. sake): 0.98 mg/L (≈ 3.53 µM); MIC (C. sake): 0.12 mg/L (≈ 0.432 µM); MFC (C. lusitaniae): 0.12 mg/L (≈ 0.432 µM); MIC (C. lusitaniae): 0.12 mg/L (≈ 0.432 µM); MFC (C. kefyr): > 1000 mg/L; MIC (C. kefyr): 31.2 mg/L (≈ 112 µM) |
| Cc1ccc(-c2csc(N/N=C/C3CC3)n2)cc1 [Compound 3d, (E)-2-(2-(Cyclopropylmethylene)hydrazinyl)-4-p-tolylthiazole] | 0.12 (≈ 0.466 µM) | 0.06 (≈ 0.233 µM) | 3.91 (≈ 15.2 µM) | 0.48 (≈ 1.87 µM) | > 1000 | 15.6 (≈ 60.7 µM) | 3.91 (≈ 15.2 µM) | 0.48 (≈ 1.87 µM) | 0.98 (≈ 3.81 µM) | 0.12 (≈ 0.466 µM) | 0.98 (≈ 3.81 µM) | 0.24 (≈ 0.933 µM) | > 1000 | 15.6 (≈ 60.7 µM) | 0.12 (≈ 0.466 µM) | 0.06 (≈ 0.233 µM) | 0.24 (≈ 0.933 µM) | 0.12 (≈ 0.466 µM) | > 1000 | 15.6 (≈ 60.7 µM) | MFC (C. parapsilosis): 0.24 mg/L (≈ 0.933 µM); MIC (C. parapsilosis): 0.06 mg/L (≈ 0.233 µM); MFC (C. sake): 0.48 mg/L (≈ 1.87 µM); MIC (C. sake): 0.12 mg/L (≈ 0.466 µM); MFC (C. lusitaniae): 0.48 mg/L (≈ 1.87 µM); MIC (C. lusitaniae): 0.12 mg/L (≈ 0.466 µM); MFC (C. kefyr): 7.81 mg/L (≈ 30.3 µM); MIC (C. kefyr): 1.95 mg/L (≈ 7.58 µM) |
| COc1ccc(-c2csc(N/N=C/C3CC3)n2)cc1 [Compound 3f, (E)-2-(2-(Cyclopropylmethylene)hydrazinyl)-4-(4-methoxyphenyl)thiazole] | 0.06 (≈ 0.219 µM) | 0.015 (≈ 0.0549 µM) | 7.81 (≈ 28.6 µM) | 0.48 (≈ 1.76 µM) | > 1000 | 31.2 (≈ 114 µM) | 7.81 (≈ 28.6 µM) | 0.48 (≈ 1.76 µM) | 0.98 (≈ 3.59 µM) | 0.03 (≈ 0.11 µM) | 0.015 (≈ 0.0549 µM) | 0.015 (≈ 0.0549 µM) | > 1000 | 31.2 (≈ 114 µM) | 0.98 (≈ 3.59 µM) | 0.06 (≈ 0.219 µM) | 0.98 (≈ 3.59 µM) | 0.24 (≈ 0.878 µM) | > 1000 | 31.2 (≈ 114 µM) | MFC (C. parapsilosis): 0.98 mg/L (≈ 3.59 µM); MIC (C. parapsilosis): 0.12 mg/L (≈ 0.439 µM); MFC (C. sake): 7.81 mg/L (≈ 28.6 µM); MIC (C. sake): 0.06 mg/L (≈ 0.219 µM); MFC (C. lusitaniae): 0.48 mg/L (≈ 1.76 µM); MIC (C. lusitaniae): 0.12 mg/L (≈ 0.439 µM); MFC/MIC (C. kefyr): 4; MFC (C. kefyr): 7.81 mg/L (≈ 28.6 µM); MIC (C. kefyr): 1.95 mg/L (≈ 7.13 µM) |
| Fc1ccc(-c2csc(N/N=C/C3CC3)n2)c(F)c1 [Compound 3g, (E)-2-(2-(Cyclopropylmethylene)hydrazinyl)-4-(2,4-difluorophenyl)thiazole] | 0.48 (≈ 1.72 µM) | 0.24 (≈ 0.859 µM) | 62.5 (≈ 224 µM) | 7.81 (≈ 28 µM) | > 1000 | 15.6 (≈ 55.9 µM) | 31.2 (≈ 112 µM) | 7.81 (≈ 28 µM) | 1.98 (≈ 7.09 µM) | 0.48 (≈ 1.72 µM) | 0.48 (≈ 1.72 µM) | 0.03 (≈ 0.107 µM) | > 1000 | 125 (≈ 448 µM) | 0.98 (≈ 3.51 µM) | 0.06 (≈ 0.215 µM) | 1.95 (≈ 6.98 µM) | 0.48 (≈ 1.72 µM) | > 1000 | 250 (≈ 895 µM) | MFC (C. parapsilosis): 1.95 mg/L (≈ 6.98 µM); MIC (C. parapsilosis): 0.98 mg/L (≈ 3.51 µM); MFC (C. sake): 3.91 mg/L (≈ 14 µM); MIC (C. sake): 0.48 mg/L (≈ 1.72 µM); MFC (C. lusitaniae): 1.95 mg/L (≈ 6.98 µM); MIC (C. lusitaniae): 0.48 mg/L (≈ 1.72 µM); MFC (C. kefyr): 31.2 mg/L (≈ 112 µM); MIC (C. kefyr): 31.2 mg/L (≈ 112 µM) |
| N#Cc1ccc(-c2csc(N/N=C/C3CC3)n2)cc1 [Compound 3h, (E)-4-(2-(2-(Cyclopropylmethylene)hydrazinyl)thiazol-4-yl)benzonitrile] | 0.98 (≈ 3.65 µM) | 0.48 (≈ 1.79 µM) | 3.91 (≈ 14.6 µM) | 1.95 (≈ 7.27 µM) | > 1000 | 125 (≈ 466 µM) | 3.91 (≈ 14.6 µM) | 0.48 (≈ 1.79 µM) | 0.48 (≈ 1.79 µM) | 0.24 (≈ 0.894 µM) | 7.81 (≈ 29.1 µM) | 0.48 (≈ 1.79 µM) | > 1000 | 125 (≈ 466 µM) | 0.98 (≈ 3.65 µM) | 0.03 (≈ 0.112 µM) | 15.6 (≈ 58.2 µM) | 0.98 (≈ 3.65 µM) | > 1000 | 62.5 (≈ 233 µM) | MFC (C. parapsilosis): 31.2 mg/L (≈ 116 µM); MIC (C. parapsilosis): 1.95 mg/L (≈ 7.27 µM); MFC (C. sake): 125 mg/L (≈ 466 µM); MIC (C. sake): 0.98 mg/L (≈ 3.65 µM); MFC (C. lusitaniae): 0.98 mg/L (≈ 3.65 µM); MIC (C. lusitaniae): 0.24 mg/L (≈ 0.894 µM); MFC (C. kefyr): 125 mg/L (≈ 466 µM); MIC (C. kefyr): 7.81 mg/L (≈ 29.1 µM) |
